Reference: PMC6013238, “Development of novel NEMO-binding domain mimetics for inhibiting IKK/NF-κB activation” (PLoS Biology, 2018)
Where “and” joins values, the source holds several entries; their conditions need not be identical. Equal values may be shown once.

How the values were obtained:
mdx mice = assay: Chronic treatment of mdx mice, hematoxylin-eosin histology of TA muscle; format: in vivo, mouse; settings: SR 30 mg/kg; for Percentage of area exhibiting necrosis or infiltration, TA muscle: Fig 7C, 8K-NBD 10 mg/kg i.p. 3 times/wk for 4 wk, single mice; for Muscle pathology of TA muscle (hematoxylin-eosin): 8K-NBD 10 mg/kg, 3 times/wk 4 wk
Source text: Fig 7 NBD mimetics improve muscular pathology and grip strength in mdx mice. (A) Shown is the treatment regimen with NBD mimetics in mdx mice. (B) Hematoxylin–eosin staining of TA muscle from 7-wk-old, treated or untreated mdx mice. Images were taken at magnification of 20×. Representative images were shown for each treatment group. […] (E) TA muscle from 7-wk-old, treated or untreated mdx mice was stained with laminin by IHC to outline myofibers. Overall images of TA muscle were shown on the left side, and the inset panel images were shown on the right side. (F) Quantitation of minimum Feret diameter in centrally and noncentrally nucleated myofibers. (G) Forelimb force determined by grip strength test. Five-wk-old (2 wk post treatment) and 7-wk-old (4 wk post treatment) mdx mice, treated or untreated, were tested for forelimb grip strength. Five sequential tests were performed, and the force was normalized to body weight. Data were shown as mean +/− SEM. Dosages used are as follows: SR12343 (30 mg/kg), SR12460 (30 mg/kg), and 8K-NBD peptide (10 mg/kg). n = 6–7 each group. *P < 0.05, **P < 0.01. Underlying data can be found in S1 Data. eMyHC, embryonic myosin heavy chain; IHC, immunohistochemistry; NBD, NEMO-binding domain; NEMO, NF-κB essential modulator; Pax7, paired box protein 7; qRT-PCR, quantitative real-time polymerase chain reaction; TA, tibialis anterior.
To determine whether SR12343 and SR12460 improve muscle pathology, TA muscle was stained with hematoxylin–eosin to assess inflammatory infiltration, necrosis, central nucleation, and fibrosis. […] In addition, Masson trichrome stain was conducted to further measure muscle fibrosis. Chronic treatment with SR12343 reduced muscle fibrosis (blue) in diaphragm and TA muscle tissues in comparison to control group (Fig 8A & 8B). To further quantitate the extent of inflammation in mdx muscle tissues, diaphragm and TA muscle were immunostained for cluster of differentiation 68 (CD68), a macrophage marker. Treatment with SR12343 reduced the number of CD68^+ cells by almost 50% per myofiber in both diaphragm and TA tissues (Fig 8A & 8B). […] To quantify the average fiber size in an unbiased way, TA muscle was stained with laminin to outline myofibers, and Feret diameter of all myocytes was quantitated in a whole muscle section.
HEK293 cells and MEFs were grown in Dulbecco’s Modified Eagle Medium (with 4.5 g/L glucose and L-glutamine), supplemented with 10% fetal bovine serum, penicillin, and streptomycin. […]
Supplementary file pbio.2004663.s005.tif: S4 Fig Chronic treatment with NBD mimetics improves muscle pathology by inhibiting NF-κB DNA binding activity in mdx mice. (A) Quantification of percentage of centralized myonuclei. […]

[1] = tested on: NF-κB DNA binding activity; assay: EMSA of NF-κB DNA binding activity in C2C12 myoblasts; format: cell-based, mouse; settings: 200 μM, 1 h, serum-free media; TNF-α 10 ng/ml 15 min
Procedure: To confirm that the NBD mimetics reduce IKK kinase activity, phosphorylation of IκBα by IKK in response to 10 ng/ml of TNF-α was measured by western blot at 0, 5, and 10 min after stimulation. […] To determine whether the mimetics also reduce NF-κB DNA binding activity, electrophoretic mobility shift assay (EMSA) was conducted both in vitro and in vivo. […] The addition of acetonitrile increased the stability of both ZINC compounds, especially ZINC 5 (Fig 3D).
Fig 3 Two identified small molecules reduce NF-κB DNA binding activity in vivo and in vitro. (A) Levels of p-IκBα with or without treatment in response to TNF-α were determined by western blot analysis. HEK293 cells were pretreated with DMSO, ZINC12909780 (100 μM), and ZINC5 (100 μM) for 30 min followed by the stimulation of 10 ng/ml of TNF-α for 0, 5, and 10 min. Cell lysates were prepared for immunoblot against p-IκBα. GAPDH was used as a loading control. (B) EMSA analysis detecting NF-κB DNA binding activity was performed in C2C12 myoblasts. Cells were pretreated with 200 μM of DMSO, ZINC12909780, and ZINC5 in serum-free media for 1 h. TNF-α was then added to a final concentration of 10 ng/ml and incubated for 15 min. Nuclear extract was obtained for EMSA analysis. (C) EMSA analysis assessing NF-κB DNA binding activity in vivo was performed with quadriceps from mdx mice. […]

SMILES	Percentage of area exhibiting necrosis or infiltration, TA muscle (mdx mice)	Muscle pathology of TA muscle (hematoxylin-eosin) (mdx mice)	TNF-α-induced NF-κB DNA binding activity (EMSA) [1]
O=C(CNCCc1cc(F)cc(F)c1)Nc1ccc(Cl)cn1 [SR12460]	3% and 6%	improved muscle pathology, although not as effectively as SR12343	
O=C(CNc1ccc(Cl)cn1)NCCc1cccc(Br)c1 [SR12343]	2% and 3% and 0% and 1%	most significant pathological improvement	
O=C(COC(=O)Cc1ccccc1F)Nc1ccc(Cl)cn1 [ZINC5]			inhibit TNF-α-induced NF-κB DNA binding activity
Nc1ncccc1C(=O)OCC(=O)Nc1ccc(Cl)cc1F [ZINC12909780]			inhibit TNF-α-induced NF-κB DNA binding activity
